# Assay results as given in the supplement of paper PMC10307832.
# Compound: C1CCC(CC1)N(CCNCCC2=C3C(=C(C=C2)O)NC(=O)CO3)C(=O)CCNCCC4=CC(=C(C=C4)Cl)Cl [AZ505] + CCNC(=O)c1noc(-c2cc(C(C)C)c(O)cc2O)c1-c1ccc(CN2CCOCC2)cc1 [Luminespib] (partner 0.01 µM)
# Assay: relative viability (nuclei count vs DMSO), 5 days (fraction); higher = more cells survive
# Conditions: first compound 0.08 µM
# Procedure, shortened: (§1)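 One day after seeding in 1536-well plates, lung cancer cell lines were dosed by pin tool. Dosing was either single-drug or a fixed anchor-drug dose plus five library-drug doses (not always all listed) in √10 steps. After 5 days, nuclei were stained in one fix-and-stain step and counted on 4× images, and relative viability is the nuclei count of treated wells over that of vehicle wells, given as the median of duplicate plates.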
row,Cell Line,relative viability
1,NCI-H2342,0.792
2,NCI-H1623,0.604
3,NCI-H727,0.319
4,NCI-H1650,0.206
5,NCI-H1993,0.842
6,SK-LU-1,0.201
7,NCI-H838,0.413
8,LCLC-103H,0.914
9,NCI-H520,0.232
10,NCI-H2126,0.771
11,EMC-BAC-2,1.14
12,NCI-H2085,0.378
13,NCI-H1666,0.974
14,NCI-H596,0.928
15,LK-2,0.189
16,NCI-H2087,0.171
17,SK-MES-1,0.511
18,H3255,0.887
19,COR-L23,0.54
20,COR-L 105,0.739
21,LOU-NH91,0.326
22,ChaGo-K-1,0.513
23,NCI-H2170,0.637
24,NCI-H2405,0.598
25,HOP-62,0.864
26,HCC-44,0.969
27,NCI-H522,1.12
28,BEN,0.367
29,NCI-H1792,0.359
30,NCI-H1563,0.478

# Same assay, conditions: first compound 0.253 µM
row,Cell Line,relative viability
1,NCI-H2342,0.662
2,NCI-H1623,0.46
3,NCI-H727,0.336
4,NCI-H1650,0.227
5,NCI-H1993,0.795
6,SK-LU-1,0.203
7,NCI-H838,0.251
8,LCLC-103H,0.961
9,NCI-H520,0.186
10,NCI-H2126,0.889
11,EMC-BAC-2,1.13
12,NCI-H2085,0.41
13,NCI-H1666,0.952
14,NCI-H596,0.917
15,LK-2,0.175
16,NCI-H2087,0.191
17,SK-MES-1,0.77
18,H3255,0.811
19,COR-L23,0.771
20,COR-L 105,0.707
21,LOU-NH91,0.331
22,ChaGo-K-1,0.603
23,NCI-H2170,0.606
24,NCI-H2405,0.474
25,HOP-62,0.883
26,HCC-44,1.03
27,NCI-H522,1.19
28,LU99A,0.268
29,BEN,0.564
30,NCI-H1563,0.504

# Same assay, conditions: first compound 0.8 µM
row,Cell Line,relative viability
1,NCI-H2342,0.814
2,NCI-H1623,0.58
3,NCI-H727,0.328
4,NCI-H1650,0.202
5,NCI-H1993,0.716
6,SK-LU-1,0.18
7,NCI-H838,0.253
8,LCLC-103H,0.877
9,NCI-H520,0.312
10,NCI-H2126,0.903
11,EMC-BAC-2,1.23
12,NCI-H2085,0.423
13,NCI-H1666,0.931
14,NCI-H596,0.976
15,LK-2,0.172
16,NCI-H2087,0.217

row,Cell Line,relative viability
1,SK-MES-1,0.758
2,H3255,0.939
3,COR-L23,0.611
4,COR-L 105,0.765
5,LOU-NH91,0.331
6,ChaGo-K-1,0.556
7,NCI-H2170,0.512
8,NCI-H2405,0.586
9,HOP-62,0.824
10,HCC-44,1.03
11,NCI-H522,1.2
12,LU99A,0.212
13,BEN,0.352
14,NCI-H1792,0.452
15,NCI-H1563,0.522

# Same assay, conditions: first compound 2.53 µM
row,Cell Line,relative viability
1,NCI-H2342,0.687
2,NCI-H1623,0.503
3,NCI-H1650,0.19
4,NCI-H1993,0.911
5,SK-LU-1,0.18
6,NCI-H838,0.287
7,LCLC-103H,0.877
8,NCI-H520,0.239
9,NCI-H2126,0.943
10,EMC-BAC-2,1.03
11,NCI-H2085,0.4
12,NCI-H1666,0.987
13,NCI-H596,0.992
14,LK-2,0.225
15,NCI-H2087,0.154
16,SK-MES-1,0.643
17,H3255,0.876
18,COR-L23,0.613
19,COR-L 105,0.831
20,LOU-NH91,0.347
21,ChaGo-K-1,0.673
22,NCI-H2170,0.714
23,NCI-H2405,0.597
24,HOP-62,0.884
25,HCC-44,1.09
26,NCI-H522,1.33
27,LU99A,0.175
28,BEN,0.336
29,NCI-H1792,0.478
30,NCI-H1563,0.473

# Same assay, conditions: first compound 8 µM
row,Cell Line,relative viability
1,NCI-H2342,0.738
2,NCI-H1623,0.681
3,NCI-H727,0.421
4,NCI-H1650,0.199
5,NCI-H1993,0.861
6,SK-LU-1,0.176
7,NCI-H838,0.424
8,LCLC-103H,0.997
9,NCI-H520,0.211
10,NCI-H2126,1.02
11,EMC-BAC-2,1.19
12,NCI-H2085,0.403
13,NCI-H1666,0.997
14,NCI-H596,0.965
15,LK-2,0.176
16,NCI-H2087,0.238

row,Cell Line,relative viability
1,SK-MES-1,0.768
2,H3255,0.963
3,COR-L23,0.706
4,COR-L 105,0.905
5,LOU-NH91,0.38
6,ChaGo-K-1,0.474
7,NCI-H2170,0.835
8,NCI-H2405,0.474
9,HOP-62,1
10,HCC-44,1.18
11,NCI-H522,1.18
12,LU99A,0.286
13,BEN,0.449
14,NCI-H1792,0.404
15,NCI-H1563,0.508

# Compound: C1CCC(CC1)N(CCNCCC2=C3C(=C(C=C2)O)NC(=O)CO3)C(=O)CCNCCC4=CC(=C(C=C4)Cl)Cl [AZ505] + Cc1nc(Nc2ncc(C(=O)Nc3c(C)cccc3Cl)s2)cc(N2CCN(CCO)CC2)n1 [Dasatinib] (partner 0.075 µM)
# Assay: as above
# Conditions: first compound 0.08 µM
# Procedure, shortened: as §1
row,Cell Line,relative viability
1,NCI-H2342,0.312
2,NCI-H1623,0.488
